The text below walks through data of US20260234099A1, “Endocannabinoid ligands and related analogs” (Northeastern University, priority 2023, published 2026).

In test [1] the target is CB1 receptor (Rattus norvegicus, UniProt P20272). As to the kind of experiment: CB1 receptor binding affinity (Ki). To be noted: for binding affinity for CB1 receptor compared to endogenous AEA: vs AEA, Table 5. The procedure:
(§1) Some disclosed compounds were tested for CB1 and CB2 receptor binding affinity (Tables 1, 2, 3, 4, 5). As used herein “binding affinity” is represented by the Ki value. The Ki value is the affinity constant and describes the affinity of the compound for the receptor. […] A detailed description of the methods used to test “binding affinity” of compounds is given in Makriyannis, et al., US 2007/0135388 the content of which is hereby incorporated by reference.

In test [2] the target is CB2 receptor (Homo sapiens, UniProt P34972). As to the kind of experiment: CB2 receptor binding affinity (Ki). Also on record: CB2 receptor Ki; CB2 receptor Ki (PMSF); other: with PMSF. The procedure: as §1
Test [3] deals with CB1 receptor (rCB1) (Rattus norvegicus, UniProt P20272). As to the kind of experiment: cAMP assay (inhibition of FSK stimulated cAMP), CB1. It counts as cell-based. To be noted: for functional profile at CB1 (cAMP): full or partial agonist; for Emax: percentage of maximum response of standard full agonist (e.g., CP-55,940). On the procedure:
Further functional characterization of some of the disclosed compounds tested initially for “binding affinity” or for GTPγ-S binding was performed by using the cyclic adenosine monophosphate (cAMP) assay. […] A detailed description of the methods used to test compounds using the cAMP assay is given in Yingpeng, et al. J. Med. Chem. (2018) 61, 8639-8657 the content of which is hereby incorporated by reference. The EC50 values (potency of a test compound) of the functional assays may or may not be accompanied by the E(max) value in tables 1-5 (efficacy of the test compound). E(max)/efficacy is the maximum GTP stimulation or cAMP inhibition levels and is presented as the percentage of maximum response evoked by a standard CB1/CB2 full agonist (e.g., CP-55,940) for reference see the paper cited above.
Background: Changes in cAMP serve as a functional read-out for many G protein-coupled receptors.

The target in test [4] is CB2 receptor (hCB2) (Homo sapiens, UniProt P34972). As to the kind of experiment: cAMP assay (inhibition of FSK stimulated cAMP), CB2. The format is cell-based. The following applies: class symbols. The procedure: FIG. 2A is a graph providing data of the % inhibition of FSK stimulated cAMP for compound 6.1.1 for hCB2.
Further functional characterization of some of the disclosed compounds tested initially for “binding affinity” or for GTPγ-S binding was performed by using the cyclic adenosine monophosphate (cAMP) assay. Key compounds initially characterized functionally using the GTPγ-S assay were also doubly tested using the cAMP assay to unambiguously confirm their functional profiles. The functional potency of the compounds tested using the cyclase assay is also represented by the EC50 (cAMP) value and similarly the lower the EC50 (cAMP) value the higher the potency of the compound for the receptor. A detailed description of the methods used to test compounds using the cAMP assay is given in Yingpeng, et al. J. Med. Chem. (2018) 61, 8639-8657 the content of which is hereby incorporated by reference. The EC50 values (potency of a test compound) of the functional assays may or may not be accompanied by the E(max) value in tables 1-5 (efficacy of the test compound). E(max)/efficacy is the maximum GTP stimulation or cAMP inhibition levels and is presented as the percentage of maximum response evoked by a standard CB1/CB2 full agonist (e.g., CP-55,940) for reference see the paper cited above. If a test compound has an efficacy close to 100% of the standard full agonist, then the test compound is also classified as full agonist.

[5] abbreviates: with PMSF, read-out: CB1 Receptor Ki with PMSF.
[6] abbreviates: without PMSF, read-out: CB1 receptor affinity Ki.

Read-outs that look alike come from different tables or passages of the source.

Chain of CB2 receptor (hCB2) (P34972 whole entry): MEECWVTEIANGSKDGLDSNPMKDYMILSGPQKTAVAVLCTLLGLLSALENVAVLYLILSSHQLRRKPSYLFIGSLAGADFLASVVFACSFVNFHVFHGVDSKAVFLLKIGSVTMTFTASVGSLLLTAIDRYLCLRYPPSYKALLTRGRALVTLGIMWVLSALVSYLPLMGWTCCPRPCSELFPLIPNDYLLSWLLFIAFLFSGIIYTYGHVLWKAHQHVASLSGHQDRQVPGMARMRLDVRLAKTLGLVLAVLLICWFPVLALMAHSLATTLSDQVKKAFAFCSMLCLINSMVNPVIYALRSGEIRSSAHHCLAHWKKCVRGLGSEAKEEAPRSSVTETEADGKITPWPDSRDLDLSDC
Chain of CB1 receptor (P20272 whole entry): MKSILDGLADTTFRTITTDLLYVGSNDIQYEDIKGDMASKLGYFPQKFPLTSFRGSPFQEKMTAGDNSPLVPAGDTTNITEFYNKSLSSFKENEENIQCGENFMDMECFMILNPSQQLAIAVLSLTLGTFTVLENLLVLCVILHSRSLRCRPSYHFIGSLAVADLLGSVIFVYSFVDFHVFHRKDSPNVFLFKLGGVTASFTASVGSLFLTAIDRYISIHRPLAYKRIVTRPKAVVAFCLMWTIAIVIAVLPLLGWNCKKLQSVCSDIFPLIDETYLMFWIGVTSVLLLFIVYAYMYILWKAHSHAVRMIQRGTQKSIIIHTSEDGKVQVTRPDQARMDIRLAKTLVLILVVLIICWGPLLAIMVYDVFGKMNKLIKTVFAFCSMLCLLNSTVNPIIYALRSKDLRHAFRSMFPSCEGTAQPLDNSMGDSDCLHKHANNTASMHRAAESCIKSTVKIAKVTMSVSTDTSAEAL
Chain of CB1 receptor (rCB1) (P20272 whole entry): as above

`CCCCC/C=C\C/C=C\C/C=C\Cc1ccccc1CCCC(=O)N[C@H](C)CO` [Compound 4.3.5, N—((R)-1-Hydroxypropan-2-yl)-4-(2-((2Z,5Z,8Z)-tetradeca-2,5,8-trien-1-yl)phenyl)butanamide]: the “CB1 over CB2 preference” value in test [1] (CB1 vs CB2, Tables 1 and 5) was “bind to and stimulate preferentially the CB1 receptors”. For the same compound, the “binding affinity for CB1 receptor compared to endogenous AEA” value in test [1] is “substantially higher binding affinities”. Besides, the figures for the Ki in test [1] (setting [5]), in test [1] (setting [6]) and in test [2] (read-out: CB2 receptor Ki) were 10 to 200 nM, 0.01 to 10 nM and 10 to 200 nM, respectively.
Take `C[C@H](/C=C\C/C=C\C/C=C\CCCC(=O)N[C@H](C)CO)/C=C\CCCCCBr` [Compound 4.1.4, (S,5Z,8Z,11Z,14Z)-20-Bromo-N—((R)-1-hydroxypropan-2-yl)-13-methylicosa-5,8,11,14-tetraenamide]: the Ki in test [1] (setting [5]), in test [1] (setting [6]) and in test [2] (read-out: CB2 receptor Ki) was 0.01 to 10 nM each time.
Regarding `CCCCC/C=C\[C@H](C)/C=C\C/C=C\Cc1ccccc1CCCC(=O)N[C@H](C)CO` [Compound 4.5.3, N—((R)-1-hydroxypropan-2-yl)-4-(2-((S,2Z,5Z,8Z)-7-methyltetradeca-2,5,8-trien-1-yl)phenyl)butanamide], the “binding affinity for CB1 receptor compared to endogenous AEA” value in test [1] was “substantially higher binding affinities”. The Ki in test [1] (setting [5]) and in test [1] (setting [6]) was 0.01 to 10 nM each time.
Take `CCCCC1(/C=C\C/C=C\C/C=C\C/C=C\CCCC(=O)N[C@H](C)CO)CCCC1` [Compound 4.4.3, (5Z,8Z,11Z,14Z)-15-(1-Butylcyclopentyl)-N—((R)-1-hydroxypropan-2-yl)pentadeca-5,8,11,14-tetraenamide]: the Ki is 200 to 1000 nM in test [1] (setting [5]) and over 1000 nM in test [2] (read-out: CB2 receptor Ki (PMSF), with PMSF).
On to `CCCCC/C=C\[C@H](C)/C=C\C/C=C\C/C=C\CCCOC(=O)C(C)(CO)CO` [Compound 6.2.2, (S,4Z,7Z,10Z,13Z)-12-Methylnonadeca-4,7,10,13-tetraen-1-yl-3-hydroxy-2(hydroxymethyl)-2-methylpropanoate], for which the EC50 in test [3] (class symbols) and in test [4] was 10 to 200 nM in each case.
For `CCCCC/C=C\[C@H](C)/C=C\C/C=C\Cc1ccccc1CCCC(=O)OC(CO)CO` [Compound 5.9.3], the EC50 in test [3] (class symbols) and in test [4] was over 1000 nM in each case.
In turn, `O=C(OC(CO)CO)C1CC1/C=C\C/C=C\C/C=C\C/C=C\CCCCCO[N+](=O)[O-]` (stereo not shown) [Compound 5.8.3b, 1,3-Dihydroxypropan-2-yl-2-((1Z,4Z,7Z,10Z)-16-(nitrooxy)hexadeca-1,4,7,10-tetraen-1-yl)cyclopropane-1-carboxylate] yielded an EC50 in test [3] (class symbols) of 10 to 200 nM.
On to `C[C@H](/C=C\C/C=C\C/C=C\C1CC1C(=O)OC(CO)CO)/C=C\CCCCC(F)(F)F` (single isomer, unassigned) [Compound 5.11.4], for which the EC50 in test [3] (class symbols) and in test [4] was 10 to 200 nM each time.
On to `C[C@H](/C=C\C/C=C\C/C=C\CCCC(=O)N[C@H](C)CO)/C=C\CCCCCO` [Compound 4.7.2], for which the Ki in test [1] (setting [6]) and in test [2] (read-out: CB2 receptor Ki) was 10 to 200 nM each time.
Take `CCCCC/C=C\C/C=C\C/C=C\C/C=C\C1CCC(C(=O)OC(CO)CO)CC1` (stereo not shown) [Compound 5.2.2f]: the concentration giving a half-maximal response (EC50) in test [3] (class symbols) and in test [4] was over 1000 nM throughout.
Consider `CCCCC/C=C\C/C=C\C/C=C\C/C=C\C1CC(C(=O)OC(CO)CO)C1` (stereo not shown) [Compound 5.2.2c], for which the EC50 in test [3] (class symbols) and in test [4] was over 1000 nM each time.
As for `CCCCCc1ccccc1C/C=C\C/C=C\C/C=C\CCCC(=O)N[C@H](C)CO` [Compound 4.6.3, (5Z,8Z,11Z)—N—((R)-1-hydroxypropan-2-yl)-13-(2-pentylphenyl)trideca-5,8,11-trienamide], the Ki in test [1] (setting [5]), in test [1] (setting [6]) and in test [2] (read-out: CB2 receptor Ki) was 10 to 200 nM each time.
Take `CCCCC/C=C\C/C=C\C/C=C\C/C=C\C1CC1C(=O)OC(CO)CO` (stereo not shown) [Compound 5.2.2b]: in test [4], the EC50 was in the range of 10 to 200 nM.
Regarding `C[C@H](/C=C\C/C=C\C/C=C\CCCC(=O)NC(CO)CO)/C=C\CCCCCOC1CCCCO1` (stereo partly shown) [Compound 5.1.6c], the concentration giving a half-maximal response (EC50) in test [3] (class symbols) and in test [4] was over 1000 nM throughout.
Turning to `CCCCC/C=C\C/C=C\C/C=C\C/C=C\C1(CC(=O)OC(CO)CO)CCC1` [Compound 5.2.2d], the EC50 is 200 to 1000 nM in test [3] (class symbols) and over 1000 nM in test [4].
Take `CCCCC/C=C\[C@H](C)/C=C\C/C=C\C/C=C\CCCC(=O)OC(CO)CO` [Compound 5.4.3c, 1,3-Dihydroxypropan-2-yl (S,5Z,8Z,11Z,14Z)-13-methylicosa-5,8,11,14-tetraenoate]: the “functional profile at CB1 (cAMP)” value in test [3] was “full agonist”. Further, the EC50 was 10.3 nM in test [3] (numeric) and 0.01 to 10 nM in test [4]. The Emax in test [3] was determined as 99%.
For `C[C@H](/C=C\C/C=C\C/C=C\C1CC1C(=O)OC(CO)CO)/C=C\CCCCCO[N+](=O)[O-]` (stereo partly drawn) [Compound 5.7.3b, 1,3-dihydroxypropan-2-yl-2-((S,1Z,4Z,7Z,10Z)-9-methyl-16-(nitrooxy)hexadeca-1,4,7,10-tetraen-1-yl)cyclopropane-1-carboxylate], the EC50 in test [3] (class symbols) lay in the range of 0.01 to 10 nM.
For `CCCCC/C=C\[C@@H](C)/C=C\C/C=C\C/C=C\CCCC(=O)OC(CO)CO` [Compound 5.4.3d, 1,3-Dihydroxypropan-2-yl (R,5Z,8Z,11Z,14Z)-13-methylicosa-5,8,11,14-tetraenoate], in test [3], the “functional profile at CB1 (cAMP)” value is “full agonist” and the Emax stood at 95%. Besides, the EC50 in test [3] (numeric) worked out at 4.1 nM. Further, the EC50 in test [4] was 0.01 to 10 nM.
Consider `C[C@H](/C=C\C/C=C\C/C=C\[C@@H]1C[C@H]1C(=O)OC(CO)CO)/C=C\CCCCC(F)(F)F` [Compound 5.12.1], for which the concentration for a half-maximal effect (EC50) in test [3] (class symbols) and in test [4] was 10 to 200 nM each time.
Compound `CCCCC/C=C\C/C=C\C/C=C\C/C=C\C1CC1C(=O)OC(CO)CO` (stereo not shown) [Compound 5.2.2a, 1,3-Dihydroxypropan-2-yl 2-((1Z,4Z,7Z,10Z)-hexadeca-1,4,7,10-tetraen-1-yl)cyclopropane-1-carboxylate] yielded a concentration for a half-maximal effect (EC50) in test [3] (class symbols) of 10 to 200 nM.
As to `C[C@H](/C=C\C/C=C\C/C=C\[C@@H]1C[C@@H]1C(=O)OC(CO)CO)/C=C\CCCCC(F)(F)F` [Compound 5.12.4, 1,3-dihydroxypropan-2-yl (1S,2S)-2-((S,1Z,4Z,7Z,10Z)-16,16,16-trifluoro-9-methylhexadeca-1,4,7,10-tetraen-1-yl)cyclopropane-1-carboxylate], the EC50 in test [3] (class symbols) and in test [4] was 10 to 200 nM in each case.
Take `C[C@H](/C=C\C/C=C\C/C=C\[C@H]1C[C@@H]1C(=O)OC(CO)CO)/C=C\CCCCC(F)(F)F` [Compound 5.12.2]: the EC50 in test [3] (class symbols) was over 1000 nM; in test [4], 10 to 200 nM.
For `C[C@H](/C=C\C/C=C\C/C=C\CCCC(=O)NC(CO)CO)/C=C\CCCCCO[N+](=O)[O-]` [Compound 5.1.6b], the figures for the EC50 in test [3] (class symbols) and in test [4] were 0.01 to 10 nM and 10 to 200 nM, respectively.
For `N#CCCCCC/C=C\C/C=C\C/C=C\C/C=C\C1CC1C(=O)OC(CO)CO` (stereo not shown) [Compound 5.8.3a, 1,3-Dihydroxypropan-2-yl-2-((1Z,4Z,7Z,10Z)-16-cyanohexadeca-1,4,7,10-tetraen-1-yl)cyclopropane-1-carboxylate], the EC50 in test [3] (class symbols) is 10 to 200 nM.
With `CCCCC/C=C\C/C=C\C/C=C\C/C=C\C1(CC(=O)NCCO)CCC1` [Compound 4.2.2d], the Ki in test [1] (setting [5]) fell in the range of 200 to 1000 nM.
Regarding `C[C@H](/C=C\C/C=C\C/C=C\[C@H]1C[C@H]1C(=O)OC(CO)CO)/C=C\CCCCC(F)(F)F` [Compound 5.12.3, 1,3-dihydroxypropan-2-yl (1R,2R)-2-((S,1Z,4Z,7Z,10Z)-16,16,16-trifluoro-9-methylhexadeca-1,4,7,10-tetraen-1-yl)cyclopropane-1-carboxylate], the EC50 in test [3] (class symbols) lay within 0.01 to 10 nM; in test [4] it was 10 to 200 nM.
Consider `C[C@H](/C=C\C/C=C\C/C=C\C1CC1C(=O)OC(CO)CO)/C=C\CCCCC(F)(F)F` (single isomer, unassigned) [Compound 5.11.8], for which the EC50 fell in the range of 0.01 to 10 nM in test [3] (class symbols) and 10 to 200 nM in test [4].

By Ki is commonly meant the equilibrium dissociation constant of an inhibitor or competing ligand from its target. For orientation: EC50 means the midpoint of the concentration-response curve. A high value points to weaker potency. Usually Emax stands for the maximal effect, on the per cent scale that the assay sets.
